Like-named read-outs stand apart in the source and are kept apart here.
Legend:
[1] = test system: CP70 ovarian cancer cell line; test: Proliferation assay (MTT); assay type: cell-based; details: Table 2.2 (further studies); Ovarian CP70; read-out: IC50
A2058 melanoma cell line = test: Proliferation assay (MTT); assay type: cell-based; details: Homo sapiens, A2058, Table 15; melanoma A2058
[2] = test system: HPAC (CRL-2119) pancreatic cancer cell line; test: Proliferation assay (MTT); assay type: cell-based, human; details: Homo sapiens, HPAC, Table 2.2; Pancreatic HPAC; read-out: IC50
rabbit kidney cells (RK) = test: Proliferation assay (MTT), normal cell toxicity; assay type: cell-based
Method: (§1) The normal cell line NFF (neonatal foreskin fibroblasts) was a sift from Dr. Peter Parsons (Queensland Institute of Medical Research). RK (rabbit kidney) cells were obtained from Miller Whalley (Macquarie University). Both cell lines were cultured in RPMI supplemented with 10% FCS(CSL, Australia), penicillin (100 U/ml), streptomycin ([…]), L-glutamine (2 mM) and sodium bicarbonate (1.2 g/L), and cultured at 37° C. in a humidified atmosphere of 5% CO2.
(§2) IC50 values were determined for each cell line. Cells were seeded in 96-well plates at an appropriate cell density as determined from growth kinetics analysis and cultured for 5 days in the absence and presence of the test compounds. Cell proliferation was assessed after the addition of 20 μl of 3-4,5 dimethylthiazol-2,5-diphenyl tetrazolium bromide (MTT, 2.5 mg/ml in PBS, Sigma) for 3-4 hrs at 37° C. according to manufacturer's instructions. IC50 values were calculated from semi-log plots of % of control proliferation on the y-axis against log dose on the x-axis.

MM200 melanoma cell line = test: Proliferation assay (MTT); assay type: cell-based; details: read-out: IC50
[3] = HMC and HHC pharmacokinetics, oral, human patients; assay type: in vivo; details: plasma
Method: Human patients were orally dosed with 200 mg of either HMC or HHC. For each challenged patient, blood was taken over a 6 hour period and the results averaged to characterise the plasma pharmacokinetics.

[4] = test system: cancer cell lines from different pathologies; test: HHC as chemosensitiser, statements by cancer indication; assay type: cell-based
Excerpt: (§3) HHC was screened as chemosensitiser against a panel cell lines representative of a range cancer indications using a panel of cytotoxics commonly used in the treatment of cancer.

[5] = test system: MDA-MB-468 breast cancer cell line; test: Proliferation assay (MTT); assay type: cell-based; details: Homo sapiens, MDA-MB-468, Table 2.2; Breast MDA-MB-468; read-out: IC50
TXB2 = test: Eicosanoid synthesis in LPS-stimulated murine macrophages (RAW 264.7); assay type: cell-based, mouse; details: 10 μM; negative values indicate inhibition
Method: (§4) The mouse macrophage cell line RAW 264.7 was cultured in DMEM supplemented with foetal calf serum (FCS), 2 mM glutamine and 50 U/ml penicillin/streptomycin. Subconfluent cells were detached from the flask by gentle scraping and 24-well plates seeded at 5×10^5 cells per well and allowed to adhere for 1 hr. Cells were then treated either test compound at a concentration of 10 μM (in 0.025% DMSO) or vehicle alone, and incubated for 1 hr. LPS 50 ng/ml (LPS—Sigma-Aldrich) was then added. After incubation for 16 hrs, culture media was collected and stored at −80° C. for ecosanoid measurements using enzyme immunometric assays (PGE2 and TXB2—Cayman Chemical).
(§5) Table 16: Percentage change in eicosanoid synthesis after incubating test compound at 10 μM compared with incubation with vehicle alone.

PGE2 = test: as above; assay type: cell-based, mouse; details: 10 μM; negative values indicate inhibition
Method: as §4, §5

cancer cell lines = test: Proliferation assays, statements over several cancer cell lines; assay type: cell-based; details: all melanoma cell lines tested to date
Method: as §2

[6] = test system: Neonatal foreskin fibroblasts (NFF); test: Proliferation assay (MTT), normal cell toxicity; assay type: cell-based, Human
Method: as §1, §2

MM96L (Melanoma) = test: HHC as chemosensitiser; assay type: cell-based
Excerpt: as §3

HTB-13.8 (Glioma) = test: HHC as chemosensitiser; assay type: cell-based; details: Glioma HTB-13.8
Excerpt: as §3

CP70 (Ovarian) = test: HHC as chemosensitiser; assay type: cell-based
Excerpt: as §3

MDA-468 (Breast) = test: HHC as chemosensitiser; assay type: cell-based; details: Breast MDA-468
Excerpt: as §3

PC3 (Prostate) = test: HHC as chemosensitiser; assay type: cell-based
Excerpt: as §3

HPAC (Pancreatic) = test: HHC as chemosensitiser; assay type: cell-based
Excerpt: as §3

HTB-138 (Glioma) = test: Proliferation assay (MTT); assay type: cell-based; details: Table 2.2; Glioma HTB-138
In short: (§6)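 Seed cells at growth-kinetics-derived density; treat with compounds for 5 days at 37° C in humidified 5% CO2; add MTT for 3-4 hrs at 37° C; plot % of control proliferation against log dose to obtain IC50.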

HT-29 (Colorectal) = test: Proliferation assay (MTT); assay type: cell-based; details: Homo sapiens, HT-29, Table 2.2; Colorectal HT-29
In short: as §6

[7] = test system: PC3 prostate cancer cell line; test: Proliferation assay (MTT); assay type: cell-based; details: Table 2.2
In short: as §6

NCI-H460 (Lung) = test: Proliferation assay (MTT); assay type: cell-based; details: Homo sapiens, NCI-H460, Table 2.2; NSC Lung NCI-H460
In short: as §6

4405 melanoma cell line = test: Proliferation assay (MTT); assay type: cell-based; details: Table 15; melanoma 4405
In short: as §6

RM melanoma cell line = test: Proliferation assay (MTT); assay type: cell-based; details: Table 15
In short: as §6

[8] = test system: SKMe128 melanoma cell line; test: Proliferation assay (MTT); assay type: cell-based; details: Table 15
In short: as §6

MM96L melanoma cell line = test: Proliferation assay (MTT); assay type: cell-based; details: Homo sapiens, Table 15
In short: as §6

IGR-3 (Melanoma) = test: Proliferation assay (MTT); assay type: cell-based; details: Table 15; melanoma IgR3
In short: as §6

CCRF-CEM (Leukemic) = test: Proliferation assay (MTT); assay type: cell-based; details: Homo sapiens, CCRF-CEM, Table 2.2; Leukaemia CCRF-CEM
In short: as §6

[9] = human, po, humans dosed orally with 200 mg

`Oc1ccc(C2COc3cc(O)ccc3C2c2ccc(O)cc2)cc1` (stereo not drawn) [Compound 11, 3-(4-hydroxyphenyl)-4-(4-hydroxyphenyl)chroman-7-ol] showed an IC50 [1] of 1100 ± 900 nM, an IC50 (A2058 melanoma cell line) of 340 nM and an IC50 [2] of 31.6 ± 27 µM. The IC50 (rabbit kidney cells (RK); Oryctolagus cuniculus, Table 1, Rabbit Kidney, read-out: IC50) was > 150 µM, the IC50 (rabbit kidney cells (RK); rabbit kidney cells) was “non-toxic” and the IC50 (MM200 melanoma cell line; Table 2.2, Melanoma MM200) was 600 ± 300 nM. For the same molecule, the IC50 (MM200 melanoma cell line; Table 15, melanoma MM200, monotherapy) was 660 ± 280 nM, the Cmax [3, 9] was 341 ng/mL and the Tmax [3, 9] was 2.67 h. The t1/2 ([3]; humans dosed orally with 200 mg) was 3.26 h, the half-life ([3]; human patients, 200 mg oral, initial results) was 196 min and the “synergy HHC:paclitaxel” value ([4]; breast and colorectal cancer, and melanoma cell lines) was “Moderate synergy”. For the same molecule, the “synergy HHC:cisplatin” value ([4]; colorectal cancer cell lines) was “mild synergy”, the “synergy HHC:cisplatin” value ([4]; ovarian and prostate cancer) was “Strong synergy” and the “synergy HHC:paclitaxel” value ([4]; ovarian cancer and glioma cell lines) was “Equivocal synergy”. The chemosensitisation to gemcitabine ([4]; ovarian, prostate, breast and pancreatic cancers, and glioma) was “strongly chemosensitise”, the “synergy HHC:cisplatin” value ([4]; pancreatic cancer and glioma) was “synergy was not observed” and the “synergy HHC:paclitaxel” value ([4]; prostate and pancreatic cancer cell lines) was “no evidence of synergy”. For the same molecule, the IC50 [5] was 1000 ± 100 nM, the “Percentage change in TXB2 synthesis vs vehicle alone” value (TXB2) was 51.4% and the “Percentage change in PGE2 synthesis vs vehicle alone” value (PGE2) was 27.2%. For the same molecule, the IC50 (cancer cell lines) was < 1000 nM, the IC50 ([6]; Homo sapiens, Fibroblast, Table 1, Neonatal Foreskin Fibroblasts (Human, NFF), read-out: IC50) was 60.8 µM and the IC50 ([6]; NFF) was “non-toxic”. For the same molecule, the “chemosensitisation to cisplatin, carboplatin and decarbazine” value (MM96L (Melanoma); MM96L melanoma cell line) was “strongly chemosensitise”, the “Synergy of HHC with Carboplatin” value (MM96L (Melanoma); Melanoma MM96L) was “SSSSS (SSSSS = Synergy)” and the “Synergy of HHC with Cisplatin” value (MM96L (Melanoma); Melanoma MM96L) was “SSSSS (SSSSS = Synergy)”. For the same molecule, the “Synergy of HHC with Dacarbazine” value (MM96L (Melanoma); Melanoma MM96L) was “SSSSS (SSSSS = Synergy)”, the “Synergy of HHC with Cisplatin” value (HTB-13.8 (Glioma)) was “n.o. (n.o. = not observed)” and the “Synergy of HHC with Gemcitabine” value (HTB-13.8 (Glioma)) was “SSSSS (SSSSS = Synergy)”. For the same molecule, the “Synergy of HHC with Paclitaxel” value (HTB-13.8 (Glioma); listed as HHC) was “n.o. (n.o. = not observed)”, the “Synergy of HHC with Cisplatin” value (CP70 (Ovarian)) was “SSSSS (SSSSS = Synergy)” and the “Synergy of HHC with Gemcitabine” value (CP70 (Ovarian)) was “SSSSS (SSSSS = Synergy)”. The “Synergy of HHC with Paclitaxel” value (CP70 (Ovarian); listed as HHC) was “n.o. (n.o. = not observed)”, the “Synergy of HHC with Gemcitabine” value (MDA-468 (Breast)) was “SSSSS (SSSSS = Synergy)” and the “Synergy of HHC with Cisplatin” value (PC3 (Prostate)) was “SSSSS (SSSSS = Synergy)”. For the same molecule, the “Synergy of HHC with Gemcitabine” value (PC3 (Prostate)) was “SSSSS (SSSSS = Synergy)”, the “Synergy of HHC with Paclitaxel” value (PC3 (Prostate)) was “n.o. (n.o. = not observed)” and the “Synergy of HHC with Cisplatin” value (HPAC (Pancreatic)) was “n.o. (n.o. = not observed)”. For the same molecule, the “Synergy of HHC with Gemcitabine” value (HPAC (Pancreatic)) was “SSSSS (SSSSS = Synergy)”, the “Synergy of HHC with Paclitaxel” value (HPAC (Pancreatic)) was “n.o. (n.o. = not observed)” and the IC50 (HTB-138 (Glioma)) was 520 ± 100 nM. For the same molecule, the IC50 (HT-29 (Colorectal)) was 2500 ± 1000 nM, the IC50 [7] was 880 ± 400 nM and the IC50 (NCI-H460 (Lung)) was 500 ± 100 nM. For the same molecule, the IC50 (4405 melanoma cell line) was 500 nM, the IC50 (RM melanoma cell line) was 390 ± 280 nM and the IC50 [8] was 360 ± 340 nM. For the same molecule, the IC50 (MM96L melanoma cell line) was 200 ± 90 nM, the IC50 (IGR-3 (Melanoma)) was 200 nM and the IC50 (CCRF-CEM (Leukemic)) was 600 ± 10 nM.

Source: patent publication US8163795B2, “Chroman derivatives, medicaments and use in therapy” (Marshall Edwards, Inc., priority 2004, dated 2012)
